Converted amounts (≈) assume the structure as drawn.
Assays:
Format in all cases: cell-based
Streptococcus pyogenes A = experiment: Minimum inhibition concentration (MIC), Table 3; details: Germ: Streptococcus pyogenes A; for MIC: read-out: Minimum inhibition concentration MIC
Excerpt: Minimum inhibition concentration MIC in γ/ml
Germ: Streptococcus pyogenes A

Streptococcus D = experiment: Minimum inhibition concentration (MIC), Table 4; details: Germ: Streptococcus D; for MIC: Streptococcus, read-out: Minimum inhibition concentration (MIC)
Excerpt: (§1) Minimum inhibition concentration (MIC) in γ/ml

[1] = system: Staphylococcus aureus 285; experiment: Minimum inhibition concentration (MIC), Table 1; details: for MIC: Staphylococcus aureus, 285, Germ: Staphylococcus aureus 285, read-out: Minimum inhibition concentration (MIC)
Excerpt: as §1
Germ: Staphylococcus aureus 285

[2] = system: Staphylococcus aureus SG 511; experiment: Minimum inhibition concentration (MIC), Table 5; details: for MIC: Staphylococcus aureus, SG511, Germ: Staphylococcus aureus SG 511, read-out: Minimum inhibition concentration (MIC)
Excerpt: as §1
Germ: Staphylococcus aureus SG 511

SMILES | MIC (Streptococcus pyogenes A) | MIC (Streptococcus D) | MIC [1] | MIC [2] | Minimum inhibition concentration (MIC) (Streptococcus pyogenes A) | Minimum inhibition concentration (MIC) (Streptococcus D) | Minimum inhibition concentration (MIC) ([1]; Germ: Staphylococcus aureus 285) | Minimum inhibition concentration (MIC) ([2]; Germ: Staphylococcus aureus SG 511)
CCCCCCNC(=N)c1ccc(OCC(=O)NC2C(=O)N3C(C(=O)O)=C(CSc4nnc(-c5ccccc5)o4)CSC23)cc1 (stereo not drawn) [Example 39] | 0.008 to 0.0156 µg/mL (≈ 0.0123 to 0.024 µM) | 10 to 50 µg/mL (≈ 15.4 to 76.8 µM) | 0.5 to 1.25 µg/mL (≈ 0.768 to 1.92 µM) | 0.0196 to 0.0391 µg/mL (≈ 0.0301 to 0.0601 µM) |  |  |  | 
N=C(N)c1ccc(OCC(=O)NC2C(=O)N3C(C(=O)O)=C(CSc4nnc(N)s4)CSC23)cc1 (stereo not drawn) [Example 49, 3-[(5-amino-1,3,4-thiadiazole-2-yl)-thiomethyl]-7-(4-amidinophenoxyacetamido)-Δ 3-cephem-4-carboxylic acid] |  | 10 to 50 µg/mL (≈ 19.2 to 95.9 µM) | 0.5 to 1.25 µg/mL (≈ 0.959 to 2.4 µM) | 0.0625 to 0.078 µg/mL (≈ 0.12 to 0.15 µM) |  |  |  | 
O=C(COc1ccc(C2=NCCCN2)cc1)NC1C(=O)N2C(C(=O)O)=C(CSc3nnc(-c4ccccc4)s3)CSC12 (stereo not drawn) [Example 50] | 0.000391 to 0.0078 µg/mL (≈ 0.000628 to 0.0125 µM) | 0.196 to 6.25 µg/mL (≈ 0.315 to 10 µM) | 0.156 to 0.391 µg/mL (≈ 0.251 to 0.628 µM) | 0.0196 to 0.0391 µg/mL (≈ 0.0315 to 0.0628 µM) |  |  |  | 
O=C(COc1ccc(C2=NCCCN2)cc1)NC1C(=O)N2C(C(=O)O)=C(CSc3nnc(-c4ccccc4)o3)CSC12 (stereo not drawn) [Example 51, 3-[(5-phenyl-1,3,4-oxadiazole-2-yl)-thiomethyl]-7-[4-(1,4,5,6-tetrahydropyrimide-2-yl)-phenoxyacetamido]-Δ 3-cephem-4-carboxylic acid] | 0.000391 to 0.0078 µg/mL (≈ 0.000644 to 0.0129 µM) | 0.196 to 6.25 µg/mL (≈ 0.323 to 10.3 µM) | 0.156 to 0.391 µg/mL (≈ 0.257 to 0.644 µM) | 0.0196 to 0.0391 µg/mL (≈ 0.0323 to 0.0644 µM) |  |  |  | 
O=C(Cc1ccc(C2=NCCN2)cc1)NC1C(=O)N2C(C(=O)O)=C(CSc3nnc(-c4ccccc4)s3)CSC12 (stereo not drawn) [Example 52, 3-[(5-phenyl-1,3,4-thiadiazole-2-yl)-thiomethyl]-7-[4-(imidazoline-2-yl)-phenylacetamido] -Δ 3-cephem-4-carboxylic acid] | 0.000391 to 0.0078 µg/mL (≈ 0.00066 to 0.0132 µM) | 0.196 to 6.25 µg/mL (≈ 0.331 to 10.5 µM) | 0.156 to 0.391 µg/mL (≈ 0.263 to 0.66 µM) | 0.0196 to 0.0391 µg/mL (≈ 0.0331 to 0.066 µM) |  |  |  | 
CCCCc1nnc(SCC2=C(C(=O)O)N3C(=O)C(NC(=O)Cc4ccc(C(=N)N)cc4)C3SC2)o1 (stereo not drawn) [Example 54, 3-[(5-n-butyl-1,3,4-oxadiazole-2-yl)-thiomethyl]-7-(4-amidino-phenylacetamido)-Δ 3-cephem-4-carboxylic acid] | 0.000391 to 0.0078 µg/mL (≈ 0.000737 to 0.0147 µM) | 10 to 50 µg/mL (≈ 18.8 to 94.2 µM) | 0.156 to 0.391 µg/mL (≈ 0.294 to 0.737 µM) | 0.0196 to 0.0391 µg/mL (≈ 0.0369 to 0.0737 µM) |  |  |  | 
N=C(N)c1ccc(CC(=O)NC2C(=O)N3C(C(=O)O)=C(CSc4nnc(-c5ccccc5)o4)CSC23)cc1 (stereo not drawn) [Example 56, 3-[(5-phenyl-1,3,4-oxadiazole-2-yl)-thiomethyl]-7-(4-amidinophenylacetamido)-Δ 3-cephem-4-carboxylic acid] | 0.000391 to 0.0078 µg/mL (≈ 0.00071 to 0.0142 µM) | 10 to 50 µg/mL (≈ 18.2 to 90.8 µM) | 0.156 to 0.391 µg/mL (≈ 0.283 to 0.71 µM) | 0.0196 to 0.0391 µg/mL (≈ 0.0356 to 0.071 µM) |  |  |  | 
N=C(N)c1ccc(CC(=O)NC2C(=O)N3C(C(=O)O)=C(CSc4nnc(-c5ccccc5)s4)CSC23)cc1 (stereo not drawn) [Example 57, 3-[(5-phenyl-1,3,4-thiadiazole-2-yl)-thiomethyl]-7-(4-amidinophenylacetamido)-Δ3-cephem-4-carboxylic acid] | 0.000391 to 0.0078 µg/mL (≈ 0.00069 to 0.0138 µM) | 10 to 50 µg/mL (≈ 17.6 to 88.2 µM) | 0.156 to 0.391 µg/mL (≈ 0.275 to 0.69 µM) | 0.0196 to 0.0391 µg/mL (≈ 0.0346 to 0.069 µM) |  |  |  | 
O=C(COc1ccc(C2=NCCCN2)cc1)NC1C(=O)N2C(C(=O)O)=C(CSc3nncs3)CSC12 (stereo not drawn) [Example 62] | 0.008 to 0.0156 µg/mL (≈ 0.0146 to 0.0285 µM) | 10 to 50 µg/mL (≈ 18.3 to 91.5 µM) | 0.5 to 1.25 µg/mL (≈ 0.915 to 2.29 µM) | 0.0625 to 0.078 µg/mL (≈ 0.114 to 0.143 µM) |  |  |  | 
N=C(N)c1ccc(OCC(=O)NC2C(=O)N3C(C(=O)O)=C(CSc4nncs4)CSC23)cc1 (stereo not drawn) [Example 63, 3-[(1,3,4-thiadiazole-2-yl)-thiomethyl]-7-(4amidinophenoxyacetamido)-Δ 3-cephem-4-carboxylic acid] | 0.008 to 0.0156 µg/mL (≈ 0.0158 to 0.0308 µM) | 10 to 50 µg/mL (≈ 19.7 to 98.7 µM) | 0.156 to 0.391 µg/mL (≈ 0.308 to 0.772 µM) | 0.0625 to 0.078 µg/mL (≈ 0.123 to 0.154 µM) |  |  |  | 
Cc1csc(SCC2=C(C(=O)O)N3C(=O)C(NC(=O)COc4ccc(C(=N)N)cc4)C3SC2)n1 (stereo not drawn) [Example 64, 3-[(4-methyl-1,3-thiazole-2-yl)-thiomethyl]-7-(4-amidinophenoxyacetamido)-Δ 3-cephem-4-carboxylic acid] |  |  |  |  | 0.000391 to 0.0078 µg/mL | 10 to 50 µg/mL | 0.5 to 1.25 µg/mL | 0.0625 to 0.078 µg/mL
N=C(N)c1ccc(OCC(=O)NC2C(=O)N3C(C(=O)O)=C(CSc4nnc(-c5ccccc5)s4)CSC23)cc1 (stereo not drawn) [Example 65, 3-[(5-phenyl-1,3,4-thiadiazole-2-yl)-thiomethyl]-7-(4-amidinophenoxyacetamido)-Δ 3-cephem-4-carboxylic acid] | 0.000391 to 0.0078 µg/mL (≈ 0.000671 to 0.0134 µM) | 10 to 50 µg/mL (≈ 17.2 to 85.8 µM) | 0.156 to 0.391 µg/mL (≈ 0.268 to 0.671 µM) | 0.0196 to 0.0391 µg/mL (≈ 0.0336 to 0.0671 µM) |  |  |  | 
CCCc1nnc(SCC2=C(C(=O)O)N3C(=O)C(NC(=O)COc4ccc(C(=N)N)cc4)C3SC2)s1 (stereo not drawn) [Example 68, 3-[(5-n-propyl-1,3,4-thiadiazole-2-yl)-thiomethyl]-7-(4-amidinophenoxyacetamido)-Δ 3-cephem-4-carboxylic acid] | 0.008 to 0.0156 µg/mL (≈ 0.0146 to 0.0284 µM) | 10 to 50 µg/mL (≈ 18.2 to 91.1 µM) | 0.5 to 1.25 µg/mL (≈ 0.911 to 2.28 µM) | 0.0625 to 0.078 µg/mL (≈ 0.114 to 0.142 µM) |  |  |  | 

Source: patent US4016159A, “Acylamino-cephem-carboxylic acids containing an amidino or guanidino group in the molecule” (Hoechst Aktiengesellschaft, priority 1973, dated 1977)
